Data taken from ChEMBL document CHEMBL3779773, “A unique macrolactam derivative via a [4+6]-cycloaddition from Streptomyces niveus” (Bioorg Med Chem Lett, 2016).
In brackets after ≈: the same amount, converted by molar mass. Blank lines part the entries; values can stand above or below the compound they belong to. Activity calls are given as the source filed them. The calls are words filed in the database; no cut-off is given here.

Experiments:
[1] = Cytotoxicity against human HCT116 cells assessed as growth inhibition after 72 hrs by MTT assay; format: functional, cell-based; settings: HCT-116, 72 h
[2] = Cytotoxicity against human Caco2 cells assessed as growth inhibition after 72 hrs by MTT assay; format: functional, cell-based; settings: Caco-2, 72 h
HepG2 [3] = assay: Cytotoxicity against human HepG2 cells assessed as growth inhibition after 72 hrs by MTT assay; format: functional, cell-based; settings: HepG2, 72 h
[4] = Cytotoxicity against human […] cells assessed as growth inhibition after 72 hrs by MTT assay; format: functional, cell-based
[5] = Cytotoxicity against human H460 cells assessed as growth inhibition after 72 hrs by MTT assay; format: functional, cell-based; settings: NCI-H460, 72 h
[6] = Cytotoxicity against human HELF cells assessed as growth inhibition after 72 hrs by MTT assay; format: cell-based
HCT-116 [7] = assay: Cytotoxicity against human HCT116 cells assessed as cell viability after 24 to 72 hrs by MTT assay; format: functional, cell-based
Caco-2 [8] = assay: Cytotoxicity against human Caco2 cells assessed as cell viability after 24 to 72 hrs by MTT assay; format: functional, cell-based
HepG2 [9] = assay: Cytotoxicity against human HepG2 cells assessed as cell viability after 24 to 72 hrs by MTT assay; format: functional, cell-based
BGC832 [10] = assay: Cytotoxicity against human […] cells assessed as cell viability after 24 to 72 hrs by MTT assay; format: functional, cell-based
NCI-H460 [11] = assay: Cytotoxicity against human H460 cells assessed as cell viability after 24 to 72 hrs by MTT assay; format: functional, cell-based
HCT-116 [12] = assay: Cytotoxicity against human HCT116 cells assessed as cell viability at 1.2 to 100 uM by MTT assay; format: functional, cell-based; settings: TDE = time-dependent effect
Caco-2 [13] = assay: Cytotoxicity against human Caco2 cells assessed as cell viability at 1.2 to 100 uM by MTT assay; format: functional, cell-based; settings: TDE = time-dependent effect
HepG2 [14] = assay: Cytotoxicity against human HepG2 cells assessed as cell viability at 1.2 to 100 uM by MTT assay; format: functional, cell-based; settings: TDE = time-dependent effect
BGC832 [15] = assay: Cytotoxicity against human […] cells assessed as cell viability at 1.2 to 100 uM by MTT assay; format: functional, cell-based; settings: TDE = time-dependent effect
NCI-H460 [16] = assay: Cytotoxicity against human H460 cells assessed as cell viability at 1.2 to 100 uM by MTT assay; format: functional, cell-based; settings: TDE = time-dependent effect
Candida albicans = assay: Antimicrobial activity against Candida albicans by micro dilution method; format: functional, organism-based
Aspergillus niger = assay: Antimicrobial activity against Aspergillus niger by micro dilution method; format: functional, organism-based
Bacillus subtilis = assay: Antimicrobial activity against Bacillus subtilis after 24 hrs using MTT reagent by micro dilution method; format: functional
Staphylococcus aureus = assay: Antimicrobial activity against Staphylococcus aureus after 24 hrs using MTT reagent by micro dilution method; format: functional, organism-based
Escherichia coli = assay: Antimicrobial activity against Escherichia coli after 24 hrs using MTT reagent by micro dilution method; format: functional, organism-based
[17] = Acute toxicity in ip dosed mouse; format: organism-based; settings: in vivo

- MIC (Bacillus subtilis): 43.9 µg/mL (≈ 99.9 µM)
Structure (SMILES): CCC/C=C/CC1CC(O)[C@@H](O)[C@@H]2/C(C)=C/[C@H]3C=C[C@H]4O[C@H]4[C@@H]3/C(C)=C/C=C\[C@@H]2C(=O)N1 (some centres not stated)
- IC50 ([1]; read-out: IC50): 8.03 µM
- IC50 [2]: 15 µM
- IC50 (HepG2 [3]): 15 µM
- IC50 [4]: 13.1 µM
- IC50 [5]: 3.76 µM
- IC50 [6]: 46.5 µM
- Activity (HCT-116 [7]): Dose-dependent effect
- Activity (Caco-2 [8]): Dose-dependent effect
- Activity (HepG2 [9]): Dose-dependent effect
- Activity (BGC832 [10]): Dose-dependent effect
- Activity (NCI-H460 [11]): Dose-dependent effect
- Activity (HCT-116 [12]): tde
- Activity (Caco-2 [13]): tde
- Activity (HepG2 [14]): tde
- Activity (BGC832 [15]): tde
- Activity (NCI-H460 [16]): tde
- Activity (Candida albicans): inactive
- Activity (Aspergillus niger): inactive
- Activity (Staphylococcus aureus): inactive
- Activity (Escherichia coli): inactive

Structure (SMILES): CCCCCCC1CC(=O)CCCC(O)CC(=O)C2=C(O)C(OC3CC(OC)C(O)C(C)O3)CC2\C=C(C)/C=C/C=C/C(=O)N1 (configuration not stated)
- LD50 [17]: > 100 mg/kg

Structure (SMILES): COc1cccc2c1C(=O)c1c(O)c3c(c(O)c1C2=O)C[C@@](O)(C(=O)CO)C[C@@H]3O[C@H]1C[C@H](N)[C@H](O)[C@H](C)O1 [DOXORUBICIN]
- IC50 [1]: 0.74 µM
- IC50 [2]: 0.96 µM
- IC50 [4]: 1.48 µM
- IC50 [5]: 0.98 µM
- IC50 [6]: 7.31 µM
